ChEMBL document CHEMBL2390945, “Synthesis and characterization of 123I-CMICE-013: a potential SPECT myocardial perfusion imaging agent” (Bioorg Med Chem, 2013)

Key:
Muscle tissue [1] = assay: Biodistribution in Sprague-Dawley rat muscle at 37 to 111 MBq, iv measured at 24 hrs by gamma counting analysis; assay type: ADME, organism-based; conditions: in vivo
Brain [2] = assay: Biodistribution in Sprague-Dawley rat brain at 37 to 111 MBq, iv measured at 24 hrs by gamma counting analysis; assay type: ADME, organism-based; conditions: in vivo
Muscle tissue [3] = assay: Biodistribution in Sprague-Dawley rat muscle at 37 to 111 MBq, iv measured at 2 hrs by gamma counting analysis; assay type: ADME, organism-based; conditions: in vivo
Kidney [4] = assay: Biodistribution in Sprague-Dawley rat kidney at 37 to 111 MBq, iv measured at 2 hrs by gamma counting analysis; assay type: ADME, organism-based; conditions: in vivo
Femur [5] = assay: Biodistribution in Sprague-Dawley rat femur at 37 to 111 MBq, iv measured at 2 hrs by gamma counting analysis; assay type: ADME, organism-based; conditions: in vivo
[6] = Ratio of drug level in heart to liver in Sprague-Dawley rat at 37 to 111 MBq, iv measured at 24 hrs; conditions: in vivo
Rattus norvegicus [7] = assay: Biodistribution in Sprague-Dawley rat testis at 37 to 111 MBq, iv measured at 24 hrs by gamma counting analysis; assay type: ADME, organism-based; conditions: in vivo
Thyroid gland [8] = assay: Biodistribution in Sprague-Dawley rat thyroid assessed per organ at 37 to 111 MBq, iv measured at 2 hrs by gamma counting analysis; assay type: ADME, organism-based; conditions: in vivo
[9] = Ratio of drug level in heart to lung in Sprague-Dawley rat at 37 to 111 MBq, iv measured at 24 hrs; conditions: in vivo
[10] = Ratio of drug level in heart to blood in Sprague-Dawley rat at 37 to 111 MBq, iv measured at 2 hrs; assay type: ADME, organism-based
Intestine [11] = assay: Biodistribution in Sprague-Dawley rat intestine at 37 to 111 MBq, iv measured at 2 hrs by gamma counting analysis; assay type: ADME, organism-based; conditions: in vivo
Ovary [12] = assay: Biodistribution in Sprague-Dawley rat ovary at 37 to 111 MBq, iv measured at 2 hrs by gamma counting analysis; assay type: ADME, organism-based, Female gonad; conditions: in vivo
Liver [13] = assay: Biodistribution in Sprague-Dawley rat liver at 37 to 111 MBq, iv measured at 24 hrs by gamma counting analysis; assay type: ADME, organism-based; conditions: in vivo
Thyroid gland [14] = assay: Drug uptake in Sprague-Dawley rat thyroid at 37 to 111 MBq, iv measured for 60 mins by TTC staining-based micro-SPECT analysis; assay type: ADME, organism-based; conditions: in vivo, 1 h
Rattus norvegicus [15] = assay: Biodistribution in Sprague-Dawley rat urinary bladder at 37 to 111 MBq, iv measured at 24 hrs by gamma counting analysis; assay type: ADME, organism-based; conditions: in vivo
Femur [16] = assay: Biodistribution in Sprague-Dawley rat femur at 37 to 111 MBq, iv measured at 24 hrs by gamma counting analysis; assay type: ADME, organism-based; conditions: in vivo
Spleen [17] = assay: Biodistribution in Sprague-Dawley rat spleen at 37 to 111 MBq, iv measured at 2 hrs by gamma counting analysis; assay type: ADME, organism-based; conditions: in vivo
Intestine [18] = assay: Biodistribution in Sprague-Dawley rat intestine at 37 to 111 MBq, iv measured at 24 hrs by gamma counting analysis; assay type: ADME, organism-based; conditions: in vivo
Rattus norvegicus [19] = assay: Biodistribution in Sprague-Dawley rat stomach at 37 to 111 MBq, iv measured at 2 hrs by gamma counting analysis; assay type: ADME, organism-based; conditions: in vivo
Blood [20] = assay: Biodistribution in Sprague-Dawley rat blood at 37 to 111 MBq, iv measured at 2 hrs by gamma counting analysis; assay type: ADME, organism-based; conditions: in vivo
Rattus norvegicus [21] = assay: Biodistribution in Sprague-Dawley rat testis at 37 to 111 MBq, iv measured at 2 hrs by gamma counting analysis; assay type: ADME, organism-based; conditions: in vivo
Liver [22] = assay: Biodistribution in Sprague-Dawley rat liver at 37 to 111 MBq, iv measured at 2 hrs by gamma counting analysis; assay type: ADME, organism-based; conditions: in vivo
Heart [23] = assay: Biodistribution in Sprague-Dawley rat heart at 37 to 111 MBq, iv measured at 24 hrs by gamma counting analysis; assay type: ADME, organism-based; conditions: in vivo
Ovary [24] = assay: Biodistribution in Sprague-Dawley rat ovary at 37 to 111 MBq, iv measured at 24 hrs by gamma counting analysis; assay type: ADME, organism-based, Female gonad; conditions: in vivo
Blood [25] = assay: Biodistribution in Sprague-Dawley rat blood at 37 to 111 MBq, iv measured at 24 hrs by gamma counting analysis; assay type: ADME, organism-based; conditions: in vivo
[26] = Ratio of drug level in heart to liver in Sprague-Dawley rat at 37 to 111 MBq, iv measured at 2 hrs; conditions: in vivo
Liver [27] = assay: Drug uptake in Sprague-Dawley rat liver at 37 to 111 MBq, iv measured for 60 mins by TTC staining-based micro-SPECT analysis; assay type: ADME, organism-based; conditions: in vivo, 1 h
Lung [28] = assay: Drug uptake in Sprague-Dawley rat lung at 37 to 111 MBq, iv measured for 60 mins by TTC staining-based micro-SPECT analysis; assay type: ADME, organism-based; conditions: in vivo, 1 h
[29] = Biodistribution in Sprague-Dawley rat urine at 37 to 111 MBq, iv measured at 2 hrs by gamma counting analysis; assay type: ADME, organism-based; conditions: in vivo
Thyroid gland [30] = assay: Biodistribution in Sprague-Dawley rat thyroid assessed per organ at 37 to 111 MBq, iv measured at 24 hrs by gamma counting analysis; assay type: ADME, organism-based; conditions: in vivo
Kidney [31] = assay: Biodistribution in Sprague-Dawley rat kidney at 37 to 111 MBq, iv measured at 24 hrs by gamma counting analysis; assay type: ADME, organism-based; conditions: in vivo
Thyroid gland [32] = assay: Biodistribution in Sprague-Dawley rat thyroid at 37 to 111 MBq, iv measured at 24 hrs by gamma counting analysis; assay type: ADME, organism-based; conditions: in vivo
[33] = Biodistribution in Sprague-Dawley rat urine at 37 to 111 MBq, iv measured at 24 hrs by gamma counting analysis; assay type: ADME, organism-based; conditions: in vivo
[34] = Drug uptake in left ventricle of Sprague-Dawley rat ischemia reperfusion injury model at 74 MBq, iv measured for 60 mins by TTC staining-based micro-SPECT analysis; assay type: ADME, organism-based, Heart left ventricle; conditions: in vivo, 1 h
[35] = Ratio of drug level in heart to blood in Sprague-Dawley rat at 37 to 111 MBq, iv measured at 24 hrs; assay type: ADME, organism-based
Spleen [36] = assay: Biodistribution in Sprague-Dawley rat spleen at 37 to 111 MBq, iv measured at 24 hrs by gamma counting analysis; assay type: ADME, organism-based; conditions: in vivo
[37] = Drug uptake in Sprague-Dawley rat parathyroid at 37 to 111 MBq, iv measured for 60 mins by TTC staining-based micro-SPECT analysis; assay type: ADME, organism-based, Thyroid gland; conditions: in vivo, 1 h
Brain [38] = assay: Biodistribution in Sprague-Dawley rat brain at 37 to 111 MBq, iv measured at 2 hrs by gamma counting analysis; assay type: ADME, organism-based; conditions: in vivo
Rattus norvegicus [39] = assay: Biodistribution in Sprague-Dawley rat urinary bladder at 37 to 111 MBq, iv measured at 2 hrs by gamma counting analysis; assay type: ADME, organism-based; conditions: in vivo
Heart [40] = assay: Biodistribution in Sprague-Dawley rat heart at 37 to 111 MBq, iv measured at 2 hrs by gamma counting analysis; assay type: ADME, organism-based; conditions: in vivo
Rattus norvegicus [41] = assay: Biodistribution in Sprague-Dawley rat stomach at 37 to 111 MBq, iv measured at 24 hrs by gamma counting analysis; assay type: ADME, organism-based; conditions: in vivo
Thyroid gland [42] = assay: Biodistribution in Sprague-Dawley rat thyroid at 37 to 111 MBq, iv measured at 2 hrs by gamma counting analysis; assay type: ADME, organism-based; conditions: in vivo
[43] = Ratio of drug level in heart to lung in Sprague-Dawley rat at 37 to 111 MBq, iv measured at 2 hrs; conditions: in vivo
Lung [44] = assay: Biodistribution in Sprague-Dawley rat lung at 37 to 111 MBq, iv measured at 2 hrs by gamma counting analysis; assay type: ADME, organism-based; conditions: in vivo
Lung [45] = assay: Biodistribution in Sprague-Dawley rat lung at 37 to 111 MBq, iv measured at 24 hrs by gamma counting analysis; assay type: ADME, organism-based; conditions: in vivo
[46] = Drug uptake in left ventricle of Sprague-Dawley rat left anterior descending occlusion model at 74 MBq, iv measured for 60 mins by TTC staining-based micro-SPECT analysis; assay type: ADME, organism-based, Heart left ventricle; conditions: in vivo, 1 h
[47] = Drug uptake in Sprague-Dawley rat myocardium at 37 to 111 MBq, iv measured for 60 mins by TTC staining-based micro-SPECT analysis; assay type: ADME, organism-based; conditions: in vivo, 1 h
Liver [48] = assay: Biodistribution in rat liver at 15 uci, iv measured at 15 mins; assay type: ADME, organism-based; conditions: in vivo, 0.25 h
Liver [49] = assay: Biodistribution in rat liver at 15 uci, iv measured at 60 mins; assay type: ADME, organism-based; conditions: in vivo, 1 h

Structure (SMILES): COc1cc2c(cc1OC)[C@@H]1C(=O)c3ccc4c(c3O[C@@H]1CO2)C[C@H](C(C)(O)C[123I])O4 (some centres undefined)
- Drug uptake (Muscle tissue [1]): 0.024 % ID/g
- Drug uptake (Brain [2]): 0.003 % ID/g
- Drug uptake (Muscle tissue [3]): 0.357 % ID/g
- Drug uptake (Kidney [4]): 0.7 % ID/g
- Drug uptake (Femur [5]): 0.242 % ID/g
- Ratio [6]: 1.08
- Drug uptake (Rattus norvegicus [7]): 0.04 % ID/g
- Drug uptake (Thyroid gland [8]): 0.334 %ID
- Ratio [9]: 0.85
- Kp at 2 h [10]: 8.37
- Drug uptake (Intestine [11]): 0.846 % ID/g
- Drug uptake (Ovary [12]): 0.22 % ID/g
- Drug uptake (Liver [13]): 0.042 % ID/g
- Drug uptake (Thyroid gland [14]): Active
- Drug uptake (Rattus norvegicus [15]): 0.768 % ID/g
- Drug uptake (Femur [16]): 0.025 % ID/g
- Drug uptake (Spleen [17]): 0.234 % ID/g
- Drug uptake (Intestine [18]): 0.122 % ID/g
- Drug uptake (Rattus norvegicus [19]): 3.263 % ID/g
- Drug uptake (Blood [20]): 0.257 % ID/g
- Drug uptake (Rattus norvegicus [21]): 0.22 % ID/g
- Drug uptake (Liver [22]): 0.709 % ID/g
- Drug uptake (Heart [23]): 0.045 % ID/g
- Drug uptake (Ovary [24]): 0.04 % ID/g
- Drug uptake (Blood [25]): 0.06 % ID/g
- Ratio [26]: 2.98
- Drug uptake (Liver [27]): Not Active
- Drug uptake (Lung [28]): Not Active
- Drug uptake [29]: 0.918 % ID/g
- Drug uptake (Thyroid gland [30]): 3.16 %ID
- Drug uptake (Kidney [31]): 0.044 % ID/g
- Drug uptake (Thyroid gland [32]): 13.329 % ID/g
- Drug uptake [33]: 0.768 % ID/g
- Drug uptake [34]: Active
- Kp at 24 h [35]: 0.79
- Drug uptake (Spleen [36]): 0.032 % ID/g
- Drug uptake [37]: Active
- Drug uptake (Brain [38]): 0.098 % ID/g
- Drug uptake (Rattus norvegicus [39]): 0.918 % ID/g
- Drug uptake (Heart [40]): 2.01 % ID/g
- Drug uptake (Rattus norvegicus [41]): 2.121 % ID/g
- Drug uptake (Thyroid gland [42]): 1.368 % ID/g
- Ratio [43]: 4.11
- Drug uptake (Lung [44]): 0.502 % ID/g
- Drug uptake (Lung [45]): 0.055 % ID/g
- Drug uptake [46]: Active
- Drug uptake [47]: Active

Structure (SMILES): CC(C)(C)n1ncc(OCc2ccc(COCCF)cc2)c(Cl)c1=O [FLURPIRIDAZ]
- Drug uptake (Liver [48]): 1.4 % ID/g
- Drug uptake (Liver [49]): 0.9 % ID/g
